According to article PMC6277198, “Molecular basis for activation of lecithin:cholesterol acyltransferase by a compound that increases HDL cholesterol” (eLife, 2018):

Assays:
[1] = biological target: T1, LCAT (Homo sapiens, UniProt P04180); test: Soluble esterase assay (pNPB); type: biochemical; conditions: WT LCAT
T1 construct: hydrolysis of 4-methylumbelliferyl palmitate (MUP) by full-length LCAT; made in house; host or cells: HEK293F (transient transfection, secreted)
T1 sequence (P04180 25-440): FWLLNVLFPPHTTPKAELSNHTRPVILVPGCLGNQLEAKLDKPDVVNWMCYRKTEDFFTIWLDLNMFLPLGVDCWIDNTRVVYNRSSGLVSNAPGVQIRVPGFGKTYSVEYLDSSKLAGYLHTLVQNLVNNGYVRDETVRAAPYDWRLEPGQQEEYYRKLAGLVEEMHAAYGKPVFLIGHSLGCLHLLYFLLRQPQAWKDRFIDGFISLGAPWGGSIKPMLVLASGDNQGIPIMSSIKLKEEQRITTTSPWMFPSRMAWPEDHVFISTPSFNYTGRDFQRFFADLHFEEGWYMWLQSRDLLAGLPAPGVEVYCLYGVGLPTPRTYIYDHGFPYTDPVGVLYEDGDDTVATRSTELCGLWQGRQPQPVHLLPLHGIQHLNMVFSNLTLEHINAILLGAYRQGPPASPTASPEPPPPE
Protocol: (§1) The esterase assay was performed as previously described ([Glukhova et al., 2015]) at least in triplicate. pNPB was diluted to 10 mM into reaction buffer containing 10% dimethylsulfoxide. The reaction was started by addition of 40 μL 1 μM LCAT containing either 3.2% DMSO or 11.1 μM compound 1 to 10 μL of pNPB. The increase in absorbance at 400 nm was monitored on a Spectramax plate reader for 15 min. Significance was determined using a one-way analysis of variance followed by Tukey’s multiple comparisons post-test in GraphPad Prism.

[2] = system: LCAT; test: Soluble esterase assay (pNPB); type: biochemical, human; conditions: any variant of LCAT
Protocol: as §1

[3] = system: LCAT Y51S, G71I, and Y51S/G71I variants; test: Differential scanning fluorimetry; type: binding, human
Protocol: Tm values were determined using an Applied Biosystems QuantStudio 7 Flex qPCR machine with two replicates performed at least in triplicate. LCAT at 0.05 mg mL^−1 was diluted into reaction buffer containing 5X Sypro Orange in a final volume of 10 μL in 384-well PCR plates. DMSO or compound 1 was added so that all reactions contained 3% DMSO. The reactions were run from 25–95 °C with a ramp rate of 0.03 °C s^−1. Tm values were determined as the derivative using Protein Thermal Shift software. Significance was determined using a one-way analysis of variance followed by Tukey’s multiple comparisons post-test in GraphPad Prism.

[4] = biological target: T2, WT LCAT (Homo sapiens, UniProt P04180); test: DHE acyltransferase assay with peptide-based HDLs; type: biochemical; set-up: hydrolysis of 4-methylumbelliferyl palmitate (MUP) by full-length LCAT; made in house; host or cells: HEK293F (transient transfection, secreted)
T2 sequence (P04180 25-440): T1 sequence (P04180 25-440)
Protocol: Peptide-based HDLs were used in this assay as there is no difference between peptide HDLs and ApoA-I HDLs in both HDL binding and acyltransferase assays ([Manthei et al., 2017]). The peptide HDLs were made using the ESP24218 peptide with the sequence […] ([Dassuex et al., 1999]; [Li et al., 2015]) with a DPPC:POPC:DHE ratio of 47:47:6 as previously described ([Manthei et al., 2017]). The assay was performed in 384-well low volume black microplates (Corning 4514) with a total assay volume of 16 μL. In each reaction, LCAT was diluted in assay buffer to 15 μg mL^−1 in the presence of either 1% DMSO or 10 μM 2 with 1% DMSO. Compound 2 was used in this assay because it has lower background fluorescence than 1. The DHE HDLs were diluted in 1X PBS with 1 mM EDTA and 5 mM β-mercaptoethanol. 8 μL of the HDLs were added to the plate, and the reactions were initiated with 8 μL of LCAT, so that LCAT was assayed at 7.5 μg mL^−1 with and without 5 μM compound with a range of DHE concentrations from 0 to 50 μM. The reactions were stopped after 25 min at 37 °C with the addition of 4 μL of stop solution (1X PBS with 1 mM EDTA, 5 U mL^−1 cholesterol oxidase (COx), and 7% Triton X100). Following the addition of stop solution, the plates were incubated for another 60 min at 37 °C to allow for the COx to react. After the plates were re-equilibrated at room temperature, fluorescence was determined on a SpectraMax plate reader with excitation at 325 nm and emission at 425 nm, with a 420 nm cutoff. Reactions without LCAT were used for background subtraction, and reactions without LCAT and stop solution lacking COx were used to generate a standard curve for DHE. Reactions were performed in triplicate with three independent experiments per LCAT variant. Data were processed via background subtraction to remove excess fluorescence that results from the higher concentrations of DHE. […] Outliers were removed using automatic outlier elimination within Prism. For statistical analysis, the Vmax for each variant was compared to WT using a one-way analysis of variance followed by Tukey’s multiple comparisons post-test in GraphPad Prism.
To determine EC50 values, compound 2 was titrated from 0.004 to 10 μM, and the DHE concentration was set at 50 μM. LCAT was diluted in assay buffer and compound 2 dilutions were made with assay buffer containing 5.3% DMSO. 1.5 μL compound was added, then 6.5 μL LCAT, followed by 8 μL DHE. Dilutions were adjusted so that LCAT was assayed at 7.5 μg mL^−1, as above. All values were background subtracted to buffer with the same concentration of compound 2. A standard curve was included in one experiment with DHE from 0 to 50 μM in order to adjust the final fluorescence values to a rate by dividing by the slope of the line and time (25 min), as above. […]

Compound	Effect on pNPB esterase activity of WT [1]	Stimulation of pNPB esterase activity [2]	Increase of Tm compared to WT (DSF) [3]	Fold activation, DHE acyltransferase activity ([4]; WT LCAT, peptide-based HDLs)	acyltransferase rate ([4]; WT LCAT, lowest concentration of compound 2 examined)	EC50 ([4]; WT, compound 2 titrated from 0.004 to 10 μM, DHE 50 μM)	Vmax, DHE assay ([4]; with 5 μM compound 2 (22 without))
N#Cc1cnc(N2CCC(c3n[nH]c4c3C(O)(C(F)(F)F)CC(=O)N4)CC2)cc1C(F)(F)F (stereo not shown) [compound 1, 6-(4-(4-Hydroxy-6-oxo-4-(trifluoromethyl)−4,5,6,7-tetrahydro-1H-pyrazolo[3,4-b]pyridin-3-yl)piperidin-1-yl)−4-(trifluoromethyl)nicotinonitrile]	seemed to inhibit	did not stimulate	far less effective				
O=C1CC(O)(C(F)(F)F)c2c(C3CCN(c4cnc(C(F)(F)F)cn4)CC3)n[nH]c2N1 (stereo not shown) [compound 2, 4-Hydroxy-4-(trifluoromethyl)−3-(1-(5-(trifluoromethyl)pyrazin-2-yl)piperidin-4-yl)−4,5-dihydro-1H-pyrazolo[3,4-b]pyridin-6(7H)-one]				2.8 fold	11 µM/h	0.28 ± 0.09 µM	37 μM DHE-ester hr^−1
